Data taken from PubChem BioAssay (NCI).
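Interpolation was linear, between the two tested concentrations surrounding the appropriate level; five concentrations were tested over 48 hours in 96-well plates. At the TGI there is no net growth.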

Experiments:
Assay in all cases: NCI anticancer screen, dose series, 48 h
[1] = system: NCI-H226 lung
[2] = system: UO-31 renal
[3] = system: MDA-N
[4] = system: TK-10 renal
[5] = system: MCF7 breast
[6] = system: A549 NSCLC
[7] = system: 786-0 renal
[8] = system: OVCAR-5 ovarian
[9] = system: OVCAR-4 ovarian
[10] = system: MDA-MB-231 breast
[11] = system: OVCAR-8 ovarian
[12] = system: CAKI-1 renal
[13] = system: EKVX NSCLC
[14] = system: CCRF-CEM leukemia
[15] = system: A498 renal
[16] = system: SNB-19 CNS
[17] = system: HOP-92 NSCLC
[18] = system: PC-3 prostate
[19] = system: HCT-116 colon
[20] = system: SNB-75 CNS
[21] = system: LOX IMVI melanoma
[22] = system: SF-268 CNS
[23] = system: SK-OV-3 ovarian
[24] = system: NCI-H23 lung
[25] = system: SW-620 colon
[26] = system: ACHN renal
[27] = system: HL-60(TB) leukemia
[28] = system: KM12 colon
[29] = system: SF-539 CNS
[30] = system: K-562 leukemia
[31] = system: BT-549 breast
[32] = system: HOP-62 NSCLC
[33] = system: SF-295 CNS
[34] = system: RXF 393 renal
[35] = system: U251 CNS
[36] = system: OVCAR-3 ovarian
[37] = system: M14 melanoma
[38] = system: DU-145 prostate
[39] = system: HT29 colon
[40] = system: UACC-62 melanoma
[41] = system: IGROV1 ovarian
[42] = system: HS 578T breast
[43] = system: MALME-3M melanoma
[44] = system: UACC-257 melanoma
[45] = system: HCC-2998 colon
[46] = system: MOLT-4 leukemia
[47] = system: NCI/ADR-RES ovarian
[48] = system: SN12C renal
[49] = system: MDA-MB-435
[50] = system: T-47D breast
[51] = system: NCI-H460 lung
[52] = system: SK-MEL-5 melanoma
[53] = system: HCT-15 colon
[54] = system: SK-MEL-28 melanoma
[55] = system: NCI-H522 lung
[56] = system: COLO 205 colon
[57] = system: SR leukemia
[58] = system: RPMI-8226 leukemia
[59] = system: SK-MEL-2 melanoma

Cc1nc(N(C(C)C)C(C)C)c(C(C)C)o1
TGI [1]: > 100 µM
TGI [2]: > 100 µM
TGI [3]: > 100 µM
TGI [4]: > 100 µM
TGI [5]: > 100 µM
TGI [6]: > 100 µM
TGI [7]: > 100 µM
TGI [8]: > 100 µM
TGI [9]: > 100 µM
TGI [10]: > 100 µM
TGI [11]: > 100 µM
TGI [12]: > 100 µM
TGI [13]: > 100 µM
TGI [14]: > 100 µM
TGI [15]: > 100 µM
TGI [16]: > 100 µM
TGI [17]: > 100 µM
TGI [18]: > 100 µM
TGI [19]: > 100 µM
TGI [20]: > 100 µM
TGI [21]: > 100 µM
TGI [22]: > 100 µM
TGI [23]: > 100 µM
TGI [24]: > 100 µM
TGI [25]: > 100 µM
TGI [26]: > 100 µM
TGI [27]: > 100 µM
TGI [28]: > 100 µM
TGI [29]: > 100 µM
TGI [30]: > 100 µM
TGI [31]: > 100 µM
TGI [32]: > 100 µM
TGI [33]: > 100 µM
TGI [34]: > 100 µM
TGI [35]: > 100 µM
TGI [36]: > 100 µM
TGI [37]: > 100 µM
TGI [38]: > 100 µM
TGI [39]: > 100 µM
TGI [40]: > 100 µM
TGI [41]: > 100 µM
TGI [42]: > 100 µM
TGI [43]: > 100 µM
TGI [44]: > 100 µM
TGI [45]: > 100 µM
TGI [46]: > 100 µM
TGI [47]: > 100 µM
TGI [48]: > 100 µM
TGI [49]: > 100 µM
TGI [50]: > 100 µM
TGI [51]: > 100 µM
TGI [52]: > 100 µM
TGI [53]: > 100 µM
TGI [54]: > 100 µM
TGI [55]: > 100 µM
TGI [56]: > 100 µM

COc1ccc(-n2c(C)nc3ccc(NC4OC(CO)C(O)C(O)C4O)cc3c2=O)cc1 (configuration not stated)
TGI [1]: > 100 µM
TGI [2]: > 100 µM
TGI [3]: > 100 µM
TGI [4]: > 100 µM
TGI [5]: > 100 µM
TGI [7]: > 100 µM
TGI [8]: > 100 µM
TGI [9]: > 100 µM
TGI [10]: > 100 µM
TGI [11]: > 100 µM
TGI [12]: > 100 µM
TGI [13]: > 100 µM
TGI [15]: > 100 µM
TGI [16]: > 100 µM
TGI [18]: > 100 µM
TGI [19]: > 100 µM
TGI [20]: > 100 µM
TGI [21]: > 100 µM
TGI [22]: > 100 µM
TGI [24]: > 100 µM
TGI [25]: > 100 µM
TGI [26]: > 100 µM
TGI [27]: > 100 µM
TGI [28]: > 100 µM
TGI [30]: > 100 µM
TGI [31]: > 100 µM
TGI [32]: > 100 µM
TGI [33]: > 100 µM
TGI [34]: > 100 µM
TGI [57]: > 100 µM
TGI [35]: > 100 µM
TGI [36]: > 100 µM
TGI [38]: > 100 µM
TGI [39]: > 100 µM
TGI [40]: > 100 µM
TGI [41]: > 100 µM
TGI [42]: > 100 µM
TGI [43]: > 100 µM
TGI [44]: > 100 µM
TGI [45]: > 100 µM
TGI [46]: > 100 µM
TGI [47]: > 100 µM
TGI [48]: > 100 µM
TGI [58]: > 100 µM
TGI [49]: > 100 µM
TGI [50]: > 100 µM
TGI [51]: > 100 µM
TGI [59]: > 100 µM
TGI [52]: > 100 µM
TGI [53]: > 100 µM
TGI [54]: > 100 µM
TGI [55]: > 100 µM
TGI [56]: > 100 µM

COc1ccc(OC)c(Cc2cnc3nc(N)nc(N)c3c2C)c1
TGI [1]: 33.3 µM
TGI [2]: 27.7 µM
TGI [3]: > 57.7 µM
TGI [4]: > 84.7 µM
TGI [5]: 28.6 µM
TGI [6]: 36.9 µM
TGI [7]: 30.2 µM
TGI [8]: 48.1 µM
TGI [9]: 28.8 µM
TGI [10]: 33.8 µM
TGI [11]: 27.8 µM
TGI [12]: > 81.9 µM
TGI [13]: > 83.3 µM
TGI [14]: 29.4 µM
TGI [16]: 55.4 µM
TGI [17]: 39.6 µM
TGI [18]: 27.7 µM
TGI [19]: 30.4 µM
TGI [20]: 21.3 µM
TGI [21]: 25.6 µM
TGI [22]: > 71.2 µM
TGI [23]: 27.2 µM
TGI [24]: > 50.1 µM
TGI [25]: > 45.1 µM
TGI [26]: 20.1 µM
TGI [27]: 18.7 µM
TGI [28]: 20.7 µM
TGI [29]: 20.3 µM
TGI [30]: 14.9 µM
TGI [31]: 43.8 µM
TGI [32]: 17.3 µM
TGI [33]: 41.9 µM
TGI [34]: 21.9 µM
TGI [57]: 21.7 µM
TGI [35]: > 44.1 µM
TGI [36]: 10.9 µM
TGI [37]: > 41.9 µM
TGI [38]: > 59.8 µM
TGI [39]: 20 µM
TGI [40]: > 71.2 µM
TGI [41]: 2.61 µM
TGI [42]: 49.7 µM
TGI [43]: 13.7 µM
TGI [44]: 47.4 µM
TGI [45]: 16.4 µM
TGI [46]: 23.5 µM
TGI [47]: > 100 µM
TGI [48]: 33.6 µM
TGI [58]: 15.8 µM
TGI [49]: > 49 µM
TGI [50]: 47.2 µM
TGI [51]: 12.2 µM
TGI [59]: 27.9 µM
TGI [52]: 93.8 µM
TGI [53]: 11.4 µM
TGI [54]: > 51 µM
TGI [55]: 21.8 µM
TGI [56]: > 52.6 µM
